# Measurements published in patent US20170197977A9, “COMPOSITIONS AND METHODS FOR TREATING NEURODEGENERATIVE DISEASE” (COGNITION THERAPEUTICS, INC., priority 2011, published 2017).
# Like-named read-outs stand apart in the source and are kept apart here.
# Experiments:
# neuronal cultures [1] = tested on: neuronal cultures
# [2] = tested on: caspase-3 activity in neurons; experiment: Caspase-3 activity assay in neurons; assay type: cell-based
# Method: The activation of endogenous caspase-3 by sigma-2 receptor ligands was measured using the Caspase-3 Colorimetric Activity Assay Kit (Milipore, Billerica, Mass.) according to the manufacture's protocol. Briefly, MDA-MB 435 or MDA-MB23I cells were plated at 0.5×10^6 cells 100 mm dish. 24 hours after plating, sigma-2 ligands were added to the culture dishes to induce caspase 3 activation. The final concentration of the sigma-2 ligand was its EC50. 24 hours after treatment, cells were harvested, lysed in 300 uL of Cell Lysis Buffer, and centrifuged for 5 minutes at 10,000×g. Supernatant was collected and incubated with caspase-3 substrate, DEVD-pNA, for 2 hours at 37° C. […] Compounds IXa,IXb and II behaved like sigma-2 […] in both cancer cells and neurons.
# [3] = tested on: caspase-3 activity in SKOV-3 human ovarian cancer cells; experiment: Caspase-3 activity assay in tumor cells; assay type: cell-based
# [4] = tested on: SKOV-3 human ovarian cancer cell line; experiment: MTS tumor cell viability assay; assay type: cell-based; details: for Action: agonist/antagonist call relative to siramesine; for IC50: Tumor cell viability, 48 hrs
# Method: The cytotoxicity of compounds shown below was determined using the CellTiter96 Aqueous One Solution Assay (Promega, Madison, Wis.). […] The plate was read at 490 nm in a Victor3 plate reader (PerkinElmer Life and Analytical Sciences, Shelton, Conn.). The EC^50 value, defined as the concentration of the sigma ligand required to inhibit cell viability by 50% relative to untreated cells, was determined from the dose response curve for each cell line.
# [5] = tested on: Abeta oligomer-induced synapse loss; experiment: Synapse loss assay (synaptophysin puncta) in primary neurons; assay type: cell-based, rat; details: for Block synapse loss: Table 10B; for Abeta oligomer-induced synapse loss: in words
# Method: In this assay, Abeta oligomers were brought in contact with mature primary neurons in culture and their binding was determined by immunohistochemistry (anti-Abeta antibody) and quantified by image processing. The amount of Abeta in neuronal dendrites is assessed by counting the number of labeled puncta on the neuritis. […] This labeling is associated with synapses, co-localizing with the post-synaptic scaffold protein PSD-95 (Lacor et al., '04). […] The number of synapses can also be quantified in this assay by immunofluorochemistry. Similar procedures for binding assays can be found in the literature. […] Review.
# Primary hippocampal neuronal culture was established as in the membrane trafficking assay above. […] Pretreatment with compounds to be tested lasted for 1 hr and addition of Abeta oligomers or no oligomer (vehicle alone) in a final concentration of 70 ul was followed by incubation for an additional 23 hrs.
# The plates were then washed 3× with PBS for 5 min each. The plates were blocked at RT for 1 hr in 5% goat serum and 0.5% Triton X-100 in PBS. […] Primary antibodies were incubated overnight at 4° C. The plates were then washed 3× with PBS for 5 min each. […] Secondary antibodies were incubated at RT for 1 hr. The plates were washed once with PBS. DAPI (4′,6-diamidino-2-phenylindole, Invitrogen) was then applied at 0.03 ug/ul and incubated at RT for 5 min, then washed with PBS.
# Images were captured and analyzed with the Cellomics VTI automated microscope platform, using the Neuronal Profiling algorithm. For statistical analysis, a Tukey-Kramer pair-wise comparison with unequal variance was used.
# [6] = tested on: Abeta oligomer-induced membrane trafficking deficits; experiment: Membrane trafficking/exocytosis (MTT) assay in mature primary hippocampal neurons; assay type: cell-based, rat; details: for Functional Neuronal Phenotype: Table 10B
# Method: The present exocytosis assay was adapted for use with mature primary neuronal cultures grown for 3 weeks in vitro.
# The methods used to generate the results were as follows in the Membrane Trafficking/Exocytosis (MTT) assay.
# Primary hippocampal neurons from E18 Sprague-Dawley rat embryos were plated at optimized concentrations in 384 well plates in NB media (Invitrogen). Neurons were maintained in cultures for 3 weeks, with twice weekly feeding of NB media with N2 supplement (Invitrogen).
# […] MTT reagent (3-(4,5-dimethylthizaol-2yl)-2,5diphenyl tetrazolium bromide) (Roche Molecular Biochemicals) was reconstituted in phosphate buffered saline to 5 mg/mL. 10 μL of MTT labeling reagent is added to each well and incubated at 37° C. for 1 h, then imaged. Exocytosis was assessed by automated microscopy and image processing to quantify the amount of endocytosed and exocytosed formazan.
# Each assay plate was formatted so that compounds are tested with and without Abeta oligomer on each plate.
# neuronal cultures [7] = experiment: Nuclear intensity / morphology in neuronal cultures; details: 24 hours
# sigma-2 receptor = experiment: Autoradiography, displacement of [3H]-RHM-1 in brain sections; assay type: binding; details: 1 μM; monkey frontal cortex, monkey hippocampus, human temporal cortex
# Method: Brain sections in 20 μM thickness from rats, rhesus monkeys and postmortem human brains were cut using with a Microm cryotome and mounted on superfrost plus glass slides (Fisher Scientific, Pittsburgh, Pa.)., and serial sections through the brain regions of cerebral cortex and hippocampus were used in this study.
# Slides were dried and made conductive by coating with a copper foil tape on the free side and then placed in the gas chamber [mixture of argon and triethylamine (Sigma-Aldrich, USA)] of a gaseous detector, the Beta Imager 2000Z Digital Beta Imaging System (Biospace, France). […] [^3H]Microscale (American Radiolabeled Chemicals, Inc., St. Louis, Mo.) was counted at the same time as a reference for total radioactivity quantitative analysis, i.e., to convert the cpm/mm2 to nCi/mg tissue. Quantitative analysis was performed with the program Beta-Image Plus (BioSpace, France) for the anatomical regions of interest (ROI), i.e., to obtain the quantitative radioactivity uptake (cpm/nlln2) in the regions of cortex and hippocampus. The binding density was normalized to fmol/mg tissue based on the specific activities of the corresponding radioligands and calibration curve from the standard [^3H]Microscale.
compound,measurement,setting,value
"COc1cc2c(cc1OC)CN(CCCCNC(=O)c1cc(C)ccc1OC)CC2 [RHM-1, N-[4-(3,4-dihydro-6,7-dimethoxyisoquinolin-2(1H)-yl)butyl]-2-methoxy-5-methylbenzamide]",Nuclear morphology / nuclear intensity compared to vehicle,neuronal cultures [1],did not decrease nuclear intensity
same,Induction of caspase-3 activity,[2],did not induce caspase-3 activity
same,Block of caspase-3 activation caused by sigma-2 receptor agonist SV-119,[3],do not block caspase-3 activation
same,Induction of caspase-3 activity,[3],did not induce caspase-3 activity
same,Action,[4],Antagonist
"COc1cc(CCC(C)NCc2ccc(C(F)(F)F)cc2)ccc1O (single isomer, unassigned; (+)) [(+) enantiomer of Cpd II]",Block synapse loss,[5]; listed as II (+) isomer,47%
same,Functional Neuronal Phenotype,[6],Antagonist
same,EC50,"[6]; dose response of % vesicles against Abeta oligomer concentration, 0 uM of enantiomer (Abeta oligomer alone), read-out: EC50 against Abeta at Concentration 0 uM",1.19 µM
same,EC50,"[6]; read-out: EC50 against Abeta at Concentration 20 uM, dose response of % vesicles against Abeta oligomer concentration, 20 uM of enantiomer",1.46 µM
COc1ccc(C)cc1NC(=O)OC1CC2CCCC(C1)N2Cc1ccc(N(C)C)cc1 (stereo not drawn) [WC-26],Nuclear morphology / nuclear intensity compared to vehicle,neuronal cultures [7],caused significant abnormal nuclear morphology
same,IC50,[4],65.6 ± 6.3 µM
same,Action,[4],Partial agonist
Fc1ccc(-n2cc(CCCCN3CCC4(CC3)OCc3ccccc34)c3ccccc32)cc1 [Siramesine],Induction of caspase-3 activity,[2],induced
same,Displacement of 18.4 nM [3H]-RHM-1,sigma-2 receptor,partially displace
same,Nuclear morphology / nuclear intensity compared to vehicle,neuronal cultures [7],caused significant abnormal nuclear morphology
same,Induction of caspase-3 activity,[3],induced caspase-3 activity
same,Action,[4],Full agonist
"O=C(CCCN1CCC(O)(c2ccc(Cl)cc2)CC1)c1ccc(F)cc1 [haloperidol, reference compound]",Abeta oligomer-induced synapse loss,[5],completely eliminated synapse loss
"COc1cc(CCC(C)NCc2ccc(C(F)(F)F)cc2)ccc1O (single isomer, unassigned; (-)) [(−) enantiomer of Cpd II]",Block synapse loss,[5]; listed as II (−) isomer,0%
same,EC50,"[6]; Rattus norvegicus, Hippocampal neuron, Table 4, read-out: EC50 in screening assay using single concentration of Abeta oligomer",10.9 µM
same,EC50,"[6]; Rattus norvegicus, Hippocampal neuron, dose response of % vesicles against Abeta oligomer concentration, 0 uM of enantiomer (Abeta oligomer alone), read-out: EC50 against Abeta at Concentration 0 uM",1.05 µM
same,EC50,"[6]; Rattus norvegicus, Hippocampal neuron, read-out: EC50 against Abeta at Concentration 20 uM, dose response of % vesicles against Abeta oligomer concentration, 20 uM of enantiomer",2.82 µM
same,Functional Neuronal Phenotype,[6],Antagonist
"CCCN(CCC)CCc1ccc(OC)c(OCCc2ccccc2)c1 [NE-100, reference compound]",Abeta oligomer-induced synapse loss,[5],completely eliminated synapse loss
COc1ccc(C)cc1NC(=O)OC1CC2CCCC(C1)N2CCCCCCN (stereo not drawn) [SV-119],Induction of caspase-3 activity,[2],activate caspase-3
same,Nuclear morphology / nuclear intensity compared to vehicle,neuronal cultures [7],caused significant abnormal nuclear morphology
same,Induction of caspase-3 activity,[3],activate caspase-3
same,IC50,[4],21.7 ± 2.9 µM
same,Action,[4],Full agonist
synthetic Abeta oligomer: Abeta 1-42 oligomers made according to published methods [reference compound],EC50,"[6]; synthetic Abeta oligomer alone, read-out: EC50 of Abeta oligomer in membrane trafficking assay",0.82 µM
